Activity calls are given as the source filed them.
Key:
[1] = cells; format: functional, cell-based
[2] = molecular target: T1, Heat shock factor protein 1 (Mus musculus, UniProt P38532); assay: decrease of HSF1-responsive luciferase luminescence – cell-based, NIH3T3, dose retest, confirmation (AID 2382); format: functional;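 further: NIH3T3 fibroblasts with HSF1-driven luciferase reporter stressed by proteasome inhibitor MG132; luminescence from HSF1-driven luciferase expression after 8 hours of MG132 stress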
T1 sequence (P38532 whole entry): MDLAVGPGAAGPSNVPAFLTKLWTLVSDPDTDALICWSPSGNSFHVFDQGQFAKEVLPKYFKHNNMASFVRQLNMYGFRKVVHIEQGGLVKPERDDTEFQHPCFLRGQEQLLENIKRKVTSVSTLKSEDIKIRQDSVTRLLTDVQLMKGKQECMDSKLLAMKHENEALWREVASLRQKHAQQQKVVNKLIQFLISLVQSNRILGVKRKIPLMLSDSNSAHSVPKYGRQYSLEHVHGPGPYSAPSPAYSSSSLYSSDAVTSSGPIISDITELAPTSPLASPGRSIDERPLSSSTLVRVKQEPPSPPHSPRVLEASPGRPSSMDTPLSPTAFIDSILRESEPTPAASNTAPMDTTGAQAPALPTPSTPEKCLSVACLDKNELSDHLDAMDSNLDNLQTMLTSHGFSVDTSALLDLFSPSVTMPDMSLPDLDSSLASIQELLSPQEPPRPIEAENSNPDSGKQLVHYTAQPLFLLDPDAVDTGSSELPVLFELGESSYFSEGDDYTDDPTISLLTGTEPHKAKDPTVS

[3] = cells; format: functional, cell-based; remark: listed apart in the source
[4] = tested on: HEK293; assay: EBV LMP1 TES2 canonical NF-kB signalling blockers – cell-based, HEK293, luciferase, cherry-pick, dose response (AID 588343); format: functional; conditions: Homo sapiens
[5] = molecular target: Glyceraldehyde-3-phosphate dehydrogenase (Homo sapiens, UniProt P04406)
[6] = molecular target: T2, Alkaline phosphatase, tissue-nonspecific isozyme (Homo sapiens, UniProt P05186); assay: potency against alkaline phosphatase TNAP – biochemical, luminescent, dose response, SAR follow-up (AID 1056)
T2 sequence (P05186 whole entry): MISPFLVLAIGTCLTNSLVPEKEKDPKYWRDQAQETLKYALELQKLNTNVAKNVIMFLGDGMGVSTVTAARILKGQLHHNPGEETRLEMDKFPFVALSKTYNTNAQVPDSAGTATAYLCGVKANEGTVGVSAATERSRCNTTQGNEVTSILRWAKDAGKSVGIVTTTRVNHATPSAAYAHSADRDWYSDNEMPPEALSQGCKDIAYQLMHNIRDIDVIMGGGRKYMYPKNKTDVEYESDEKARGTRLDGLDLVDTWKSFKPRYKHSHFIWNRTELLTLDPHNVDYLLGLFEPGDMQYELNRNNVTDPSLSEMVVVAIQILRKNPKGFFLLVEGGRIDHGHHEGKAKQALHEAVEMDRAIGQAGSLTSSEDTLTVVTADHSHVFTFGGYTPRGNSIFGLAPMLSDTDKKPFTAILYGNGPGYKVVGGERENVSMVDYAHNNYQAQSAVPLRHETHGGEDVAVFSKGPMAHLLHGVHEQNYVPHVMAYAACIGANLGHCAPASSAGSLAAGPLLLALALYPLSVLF

[7] = Luminescence Cell-Based Dose Retest to Confirm Inhibitors of Cancer Stem Cells. [Related pubchem assays (depositor defined):AID2717, AID2721]; format: functional; conditions: Homo sapiens
[8] = tested on: Vero; assay: cells; format: functional; conditions: Chlorocebus sabaeus
[9] = molecular target: Troponin, cardiac muscle (Homo sapiens, UniProt P19429+P45379+P63316); assay: Fluorescence-based biochemical high throughput dose response assay for activators of the calcium sensitivity of cardiac Regulated Thin Filaments (RTF). [Related pubchem assays (depositor defined):AID493008, AID493018, AID504382, AID504383]; format: protein-complex assay
[10] = tested on: HeLa; assay: ATP-based viability loss in HeLa cells – cell-based, CellTiter-Glo luminescence, cherry-pick samples, cytotoxicity control for MITF activator project, dose response (AID 540259); format: functional; conditions: Homo sapiens
[11] = molecular target: T3, Microphthalmia-associated transcription factor (Homo sapiens, UniProt O75030); assay: reducers of TRPM1 reporter luminescence, concentration series – cell-based, SK-MEL-5, cherry-picked, set 3, MITF inhibitor project, dose response (AID 493073); format: functional;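 further: SK-MEL-5 melanoma cells with luciferase driven by the MITF target TRPM1 promoter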
T3 sequence (O75030 whole entry): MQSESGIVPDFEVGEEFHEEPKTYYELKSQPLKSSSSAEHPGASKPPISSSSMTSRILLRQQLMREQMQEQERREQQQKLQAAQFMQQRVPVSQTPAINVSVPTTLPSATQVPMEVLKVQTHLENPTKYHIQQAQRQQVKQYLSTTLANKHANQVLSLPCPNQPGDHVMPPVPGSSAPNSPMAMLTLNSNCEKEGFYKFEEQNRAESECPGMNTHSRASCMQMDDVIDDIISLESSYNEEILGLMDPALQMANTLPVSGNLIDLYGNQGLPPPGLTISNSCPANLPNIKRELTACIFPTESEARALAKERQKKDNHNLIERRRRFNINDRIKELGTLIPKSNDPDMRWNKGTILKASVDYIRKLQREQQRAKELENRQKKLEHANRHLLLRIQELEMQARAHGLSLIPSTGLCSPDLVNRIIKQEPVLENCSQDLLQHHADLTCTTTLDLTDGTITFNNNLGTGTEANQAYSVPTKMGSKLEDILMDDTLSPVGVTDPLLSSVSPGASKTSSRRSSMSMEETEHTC

[12] = Trypanosoma cruzi growth suppression in host cells – NIH3T3 host cells, beta-gal luminescence, confirmation (AID 2044); format: functional, cell-based;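 further: intracellular parasites grown in NIH/3T3 mouse fibroblasts as host cells; luminescent beta-galactosidase reporter signal from transgenic T. cruzi replicating inside host cells; inhibitors lower the luminescence signal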
[13] = NIH3T3 cell viability loss – ATP luminescence, mouse fibroblasts, counter-screen, dose response (AID 2010); format: functional, cell-based;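 further: cells exposed to compound for about 90 hours before reading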
[14] = molecular target: T4, Replicative DNA helicase DnaB (Mycobacterium tuberculosis, UniProt P9WMR3); assay: DnaB intein splicing inhibitors, dose response, biochemical, cell-free fluorescence (AID 449749); format: functional
T4 sequence (P9WMR3 whole entry): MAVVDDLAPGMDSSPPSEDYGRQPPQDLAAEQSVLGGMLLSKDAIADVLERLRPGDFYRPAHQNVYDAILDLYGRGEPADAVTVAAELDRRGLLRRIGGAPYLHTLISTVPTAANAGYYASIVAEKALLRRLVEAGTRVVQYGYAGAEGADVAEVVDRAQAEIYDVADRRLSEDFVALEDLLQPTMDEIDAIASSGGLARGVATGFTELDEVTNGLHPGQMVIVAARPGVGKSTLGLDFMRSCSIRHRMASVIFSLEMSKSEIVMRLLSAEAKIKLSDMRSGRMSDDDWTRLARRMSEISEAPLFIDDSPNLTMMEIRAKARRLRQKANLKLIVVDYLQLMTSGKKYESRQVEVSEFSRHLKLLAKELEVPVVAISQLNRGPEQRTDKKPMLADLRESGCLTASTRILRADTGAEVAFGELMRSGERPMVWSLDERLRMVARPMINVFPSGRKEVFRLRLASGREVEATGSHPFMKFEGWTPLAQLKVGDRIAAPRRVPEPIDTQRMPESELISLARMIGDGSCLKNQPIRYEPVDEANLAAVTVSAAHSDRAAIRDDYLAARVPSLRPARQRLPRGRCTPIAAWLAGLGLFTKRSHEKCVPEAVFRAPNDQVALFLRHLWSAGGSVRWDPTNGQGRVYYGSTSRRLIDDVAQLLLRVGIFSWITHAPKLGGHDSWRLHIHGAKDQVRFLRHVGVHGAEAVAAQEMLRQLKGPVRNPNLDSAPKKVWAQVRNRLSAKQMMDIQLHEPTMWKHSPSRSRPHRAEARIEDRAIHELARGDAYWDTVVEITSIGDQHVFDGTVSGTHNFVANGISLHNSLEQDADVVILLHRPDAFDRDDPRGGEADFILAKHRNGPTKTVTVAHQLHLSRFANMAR

[15] = molecular target: T5, Protein RecA (Mycobacterium tuberculosis, UniProt P9WHJ3); assay: Fluorescence Cell-Free Homogeneous Dose Retest to Identify Inhibitors of RecA-Intein Splicing Activity. [Related pubchem assays (depositor defined):AID2097, AID2223, AID489010, AID492950]; format: functional
T5 sequence (P9WHJ3 whole entry): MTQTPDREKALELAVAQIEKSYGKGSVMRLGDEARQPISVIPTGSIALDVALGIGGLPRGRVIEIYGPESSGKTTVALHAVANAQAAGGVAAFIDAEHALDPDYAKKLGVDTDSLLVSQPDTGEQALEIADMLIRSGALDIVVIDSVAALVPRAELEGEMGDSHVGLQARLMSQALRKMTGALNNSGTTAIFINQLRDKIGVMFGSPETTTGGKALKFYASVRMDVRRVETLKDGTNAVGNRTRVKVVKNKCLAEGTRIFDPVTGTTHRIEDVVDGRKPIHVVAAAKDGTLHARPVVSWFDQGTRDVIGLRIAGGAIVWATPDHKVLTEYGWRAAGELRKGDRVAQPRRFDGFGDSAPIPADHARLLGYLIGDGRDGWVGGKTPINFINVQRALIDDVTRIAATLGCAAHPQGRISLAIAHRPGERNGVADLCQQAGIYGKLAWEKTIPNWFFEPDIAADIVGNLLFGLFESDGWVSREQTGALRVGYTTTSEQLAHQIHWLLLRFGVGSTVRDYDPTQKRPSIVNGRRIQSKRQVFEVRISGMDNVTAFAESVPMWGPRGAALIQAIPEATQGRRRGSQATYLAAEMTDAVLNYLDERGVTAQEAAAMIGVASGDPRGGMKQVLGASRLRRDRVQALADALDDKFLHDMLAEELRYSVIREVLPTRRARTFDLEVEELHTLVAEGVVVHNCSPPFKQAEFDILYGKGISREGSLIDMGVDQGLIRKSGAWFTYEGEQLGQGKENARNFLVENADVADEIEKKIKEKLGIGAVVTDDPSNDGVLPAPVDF

[16] = molecular target: Cytochrome P450 3A4 (Homo sapiens, UniProt P08684);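 further: CYP3A4 tested as one member of a cytochrome P450 panel screen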

In the case of `C[C@@H](C(=O)Nc1ccc2c(c1)OCCO2)n1c(=O)[nH]c2ccccc2c1=O`, the EC50 [1] is reported as > 350 µM (not active), the EC50 [2] is reported as 377 nM (active) and the EC50 [3] is reported as > 350 µM (not active). The AC50 [4] was 6.08 µM (active).

In the case of `Cc1ccc(-c2cc(C(=O)O)[nH]n2)cc1C`, the IC50 [5] is reported as > 100 µM (not active) and the IC50 [6] is reported as 62.9 µM (active).

In the case of `N#Cc1c(NC(=O)CCCC(=O)O)sc2c1CCCCC2`, the AC50 [4] is reported as 4.36 µM (active).

With `CC1=NN(c2ccccc2)C(=O)/C1=C/C=C/c1ccccc1` the AC50 [7] was 2.41 µM (active) and the CC50 [8] was 11.3 µM (active).

For `COc1ccccc1-c1nnc(SCc2nc3ccccc3s2)n1C`, the EC50 [9] was > 71.5 µM (inactive).

For `CC1CCC(NC(=O)c2cc3ccccc3cc2O)CC1` (centres undefined), the AC50 [10] was 35.2 µM (active).

In the case of `COc1ccc(CCNC(=O)COC(=O)c2cc(=O)[nH]c3ccccc23)cc1`, the EC50 [9] is reported as > 71.5 µM (inactive).

For `COc1cc(OC)cc(-c2oc(=O)c3cc(OC)c(OC)cc3c2C(F)(F)F)c1`, the AC50 [11] was 12.8 µM (active).

In the case of `CCN(CC)S(=O)(=O)c1cccc(C(=O)N/N=C/c2ccc([N+](=O)[O-])o2)c1`, the EC50 [12] is reported as 218 nM (active), the EC50 [13] is reported as 13.3 µM (active) and the AC50 [11] is reported as 14.1 µM (active).

For `CN(C(=O)C(Cl)Cl)c1ccc(OC(=O)c2ccco2)cc1` [DILOXANIDE FUROATE], the AC50 [14] was 13.9 µM (active), the EC50 [15] was 10.3 µM (active) and the AC50 [16] was “inconclusive”.

— ChEMBL document CHEMBL1201862, “PubChem BioAssay data set” (2004)
